Assay results published in patent US12303471B2, “Methods of treatment of temozolomide-resistant glioma using coenzyme Q10” (BPGbio, Inc., priority 2015, dated 2025).

Key:
[1] = tested on: recurrent high-grade gliomas; details: patients with recurrent high-grade gliomas; cited from earlier work
MIA PaCa-2 = assay: Oxygen consumption rate during succinate-fueled mitochondrial respiration, permeabilized cells, Seahorse XF96; type: cell-based; details: 100, 137 or 274 μM Coenzyme Q10, State 3, State 4o, State 3u, FIG. 1
Method: (§1) Oxygen consumption rate (OCR) was measured during various states of succinate-fueled mitochondrial respiration in the triple-negative breast cancer cell line MDA-MB231 and the mutant K-Ras-driven pancreatic cancer cell line MIA PaCa-2 treated with different concentrations of Coenzyme Q10. […] The assays were performed in permeabilized adherent cells using the Seahorse XF96 Analyzer. Cells were permeabilized with XF PMP reagent and put into mitochondrial State 3 by replacing the growth media with Mitochondrial Assay Solution (containing mannitol, sucrose, KH2PO4, MgCl2, HEPES, and EGTA) supplemented with succinate, rotenone (to block reverse electron transfer back to Complex I), and ADP. OCR was measured in State 3, and then again upon sequential injection of oligomycin and FCCP to induce State 4o (o=oligomycin) and State 3u (u=uncoupled).

MDA-MB231 = assay: as above; type: cell-based; details: 100, 155 or 310 μM Coenzyme Q10, State 3, State 4o, State 3u, FIG. 1
Method: as §1

[2] = Coenzyme Q10 plasma levels in rats; type: in vivo; details: four days after treatment initiated
Method: Coenzyme Q10 plasma levels were measured in the rats bearing C6 gliomas four days after Coenzyme Q10 treatment was initiated.

Rat C6 glioma cells = assay: Rat model of glioma (C6 glioma cell implantation); type: in vivo, Sprague-Dawley rats
Method: The C6 glioma cells develop into a glioma-like tumor. The rats bearing C6 gliomas were treated twice per day with 5, 10, 25 or 50 mg/kg Coenzyme Q10 by intraperitoneal or subcutaneous injection. Coenzyme Q10 treatment was initiated 1 day (n=3), 4 days (n=14), or 8 days (n=3) after implantation of C6 glioma cells. Coenzyme Q10 treatment was continued twice daily until the rat died, or until 34 days after implantation of glioma cells. […] Four of the rats treated with Coenzyme Q10 survived for at least 50 days after implantation of the C6 glioma cells, while none of the untreated control rats survived more than 15 days after implantation. In fact, two of the rats treated with Coenzyme Q10 survived more than 100 days post implantation (see below and FIGS. 9 and 10). Of the four rats that were alive at Day 50, 1 received 10 mg/kg Coenzyme Q10 starting 4 days after implantation, and 3 received 50 mg/kg Coenzyme Q10 starting 4 days or 8 days after implantation.
Enlarged ventricles (hydrocephalus) were present 27 days post C6 implantation (FIG. 9A). At 34 days post-implantation, enlarged ventricles were stilled observed. In addition, there was a complex mass in the tumor area which was not clearly growing (FIG. 9B). Coenzyme Q10 treatment was discontinued at Day 34. […] At 27 days post C6 implantation, a complex mass was visible, but it was unclear if this mass represented a tumor or a scar (FIG. 10A). At 34 days post C6 implantation, a scar was visible at the site of implantation and improvement in the overall condition of the rat was observed that was not consistent with tumor growth (FIG. 10B).

[3] = tested on: TMZ-resistant glioblastoma; assay: Coenzyme Q10 in TMZ-resistant glioblastoma in humans; type: in vivo; details: 4% coenzyme Q10 nanosuspension, 24-, 48- or 96-hour infusion, monotherapy
Method: The efficacy of Coenzyme Q10 in treating TMZ-resistant glioblastoma is evaluated in humans using Coenzyme Q10 monotherapy and Coenzyme Q10 in combination with chemotherapy. The Coenzyme Q10 is provided as a 4% coenzyme Q10 nanosuspension formulation as described in WO 2011/112900, the entire contents of which are expressly incorporated herein by reference. The study is designed with dosing schedules of a 24-hour infusion, 48-hour infusion, or 96-hour continuous infusion. This extended dosage schedule is intended to decrease Coenzyme Q10 Cmax values and maintain steady-state levels. Patient survival time and glioblastoma tumor status before, during, and after Coenzyme Q10 treatment is evaluated.

[4] = tested on: mutant K-Ras-driven pancreatic cancer cell line MIA PaCa-2; assay: Coenzyme Q10 sensitivity (IC50/IC90) of MIA PaCa-2 cells; type: cell-based; details: Homo sapiens
Method: as §1

[5] = tested on: human U373 cells (TMZ-sensitive and TMZ-resistant GBM cells); assay: TMZ-sensitive and TMZ-resistant U373 glioblastoma tumors in mice; type: in vivo; details: intravenous single daily dose of 4% Coenzyme Q10, 50 mg/kg/day
Description: Equal numbers (1×10^7) of human U373 cells left untreated and thus sensitive (TMZ-sensitive) versus TMZ long-term treated (TMZ-resistant) GBM cells (see Calve et al., 2010, Neoplasia 12(9): 727-739, which is incorporated by reference herein in its entirety) are suspended in MATRIGEL® and injected into mice. Tumors are allowed to develop, and treatment is not initiated unless tumors are present.
Mice having tumors are randomized into 4 groups of 30 mice each as follows: • i. Group 1—No treatment, TMZ-sensitive • ii. Group 2—No treatment, TMZ-resistant • iii. Group 3—Intravenous single daily dose of 4% Coenzyme Q10, 50 mg/kg/day, TMZ-sensitive • iv. Group 4—Intravenous single daily dose of 4% Coenzyme Q10, 50 mg/kg/day, TMZ-resistant
Animals are observed for viability and tumor growth is monitored. Animal survival results are collected through day 400.

[6] = tested on: triple-negative breast cancer cell line MDA-MB231; assay: Coenzyme Q10 sensitivity (IC50/IC90) of MDA-MB231 cells; type: cell-based; details: Homo sapiens, MDA-MB-231
Method: as §1

MDA-MB231 cells [7] = assay: Propidium iodide (PI) and Annexin V flow cytometry cell death assay; type: cell-based; details: malonate 5 mM with Coenzyme Q10 155 μM or 310 μM, 72 hours; FIG. 5
Method: MDA-MB231 cells were treated with Coenzyme Q10 and/or malonate as shown below: • 1. Untreated • 2. Malonate (5 mM) • 3.
At 72 hours post treatment, cell culture supernatant (containing detached apoptotic cells) and adherent cells were harvested by trypsinization, centrifuged at 500 g for 5 minutes, and the resulting pellets were washed in staining media (PBS, 0.5% FBS). Cells were co-stained with FITC conjugated anti-Annexin-V (1:100, Molecular Probes) to detect PS exposure on the outer membrane surface and Propidium Iodine (PI, 1:2500, Molecular Probes) in 200 μL binding buffer (Molecular Probes). After a 15 minute incubation in the dark, the percentage of Annexin V+/PI+ cells was analyzed using an Accuri C6 Flow Cytometer (BD Biosciences) and samples were run within one hour after staining.
The cells were rated as follows: • 1. PI-negative and Annexin V-negative: viable • 2. PI-negative and Annexin V-positive: early apoptosis • 3. PI-positive and Annexin V-positive: late apoptosis • 4. PI-positive and Annexin V-negative: dead.

MDA-MB231 cells [8] = assay: CellTiter-Fluor viability assay, co-treatment with Coenzyme Q10 and Complex II inhibitors; details: 5 μM Atpenin A5 with 0-1600 μM Coenzyme Q10, 72 h; FIG. 4
Method: To assess whether the effects of Coenzyme Q10 on Complex II-mediated respiration are functionally linked to Coenzyme Q10-induced cytotoxicity, MDA-MB231 cells were co-treated with two inhibitors of Complex II (atpenin A5 and malonate) which act at separate sites in Complex II.
The viability of MDA-MB231 cells treated with atpenin A5 and Coenzyme Q10 or malonate and Coenzyme Q10 was determined by a CellTiter-Fluor viability assay (Promega, Cat. No. G6080). Briefly, cells were co-treated with 0, 25, 50, 100, 200, 400, 800 or 1600 μM Coenzyme Q10 and either 5 μM Atpenin A5 or 5 mM malonic acid for 72 h, and then assayed per the manufacture's protocol.

Compound: Bevacizumab: monoclonal antibody against vascular endothelial growth factor (VEGF)
- overall median survival [1]: improved overall median survival
- response rates [1]: 32-62%

Compound: COC1=C(OC)C(=O)C(CC=C(C)CCC=C(C)CCC=C(C)CCC=C(C)CCC=C(C)CCC=C(C)CCC=C(C)CCC=C(C)CCC=C(C)CCC=C(C)C)=C(C)C1=O [Coenzyme Q10, 2-(3,7,11,15,19,23,27,31,35,39-decamethyltetraconta-2,6,10,14,18,22,26,30,34,38-decaenyl)-5,6-dimethoxy-3-methyl-cyclohexa-2,5-diene-1,4-dione]
- succinate-fueled respiration (oxygen consumption rate) (MIA PaCa-2): significantly decreased by Coenzyme Q10 in a dose dependent manner
- succinate-fueled respiration (oxygen consumption rate) (MDA-MB231): significantly decreased by Coenzyme Q10 in a dose dependent manner
- dose that resulted in the highest Coenzyme Q10 plasma levels ([2]; 5, 10, 25 or 50 mg/kg twice daily intraperitoneal, FIG. 12): 25 mg/kg
- Coenzyme Q10 plasma levels, intraperitoneal compared to subcutaneous injection ([2]; rats bearing C6 gliomas, 50 mg/kg twice daily, FIG. 11): significantly higher
- condition of surviving rat, coronal sections (Rat C6 glioma cells; 10 mg/kg twice daily i.p. from day 4, discontinued Day 34, 103 days post-implantation, FIG. 9C): appeared normal with possible scar tissue in the tumor area
- rats alive at Day 50 (Rat C6 glioma cells; 10 mg/kg twice daily, starting 4 days after implantation): 1
- condition of surviving rat, coronal sections (Rat C6 glioma cells; 50 mg/kg twice daily i.p. from day 4, 103 days after C6 implantation, FIG. 10C): clinically normal
- rats alive at Day 50 (Rat C6 glioma cells; 50 mg/kg twice daily, starting 4 days or 8 days after implantation): 3
- rats that survived for at least 50 days after implantation of the C6 glioma cells (Rat C6 glioma cells; 5, 10, 25 or 50 mg/kg twice per day intraperitoneal, n=20, no untreated control (n=33) survived more than 15 days): Four
- rats that survived more than 100 days post implantation (Rat C6 glioma cells; Coenzyme Q10 twice daily intraperitoneal, n=20): two
- tumor growth relative to standard chemotherapy [3]: reduce tumor growth
- IC50 [4]: 137 µM
- IC90 [4]: 274 µM
- glioblastoma tumor growth compared to control (untreated) animals [5]: significantly reduced glioblastoma tumor growth
- survival compared to control (untreated) animals ([5]; through day 400): significantly increased survival
- IC50 [6]: 155 µM
- IC90 [6]: 310 µM

Compound: O=C(O)CC(=O)O [malonate]
- effect on Coenzyme Q10-induced cell death (MDA-MB231 cells [7]): attenuated Coenzyme Q10-induced cell death

Compound: COc1[nH]c(=O)c(C(=O)[C@@H](C)C[C@H](C)[C@@H](Cl)CCl)c(O)c1OC [atpenin A5]
- effect of co-treatment on Coenzyme Q10-induced cytotoxicity (MDA-MB231 cells [8]): enhanced cytotoxicity
